Patent US5519021A, “Benzoxazinones as inhibitors of HIV reverse transcriptase” (priority 1995, dated 1996)
Read-outs that look alike come from different tables or passages of the source.

Columns and labels:
A17 RT = biological target: T1, A17 RT (Human immunodeficiency virus type 1 group M subtype B, UniProt P04585, K690N/Y768C); experiment: biochemical; design: species or system HIV-1
T1 construct: A17 RT was employed in the assay; made in house; host or cells: bacteria
Experimental: (§1) The assay measures the incorporation of tritiated deoxyguanosine monophosphate by recombinant HIV reverse transcriptase (HIV RTR) (or other RT) into acid-precipitable cDNA at the Km values of dGTP and poly r(C).cndot.oligo d(G)12-18.
(§2) The assays were carried out in 55 mM Tris (pH 8.2)-30 mM KCl-30 mM MgCl2 -1 mM dithiothreitol-20 μg of rC:dG 12-18 (Pharmacia) per ml-8 mM [^3 H]dGTP (New England Nuclear)-0.01% Triton X-100-50 mM ethylene glycol-bis(β-amino-ethyl ether)-N,N,N',N'-tetraacetic acid (EGTA)-1 mg of bovine serum albumin per ml. After 60 min of incubation at 37° C., acid-precipitable material was collected onto glass fiber filters by using a semiautomatic cell harvester. Bacterial cell extracts containing RT were diluted to within the linear range of the assay, and activity was determined in the presence and absence of inhibitor. Purified HIV-1 RT heterodimer produced in E. coli also served as a control.
For the double mutant assay (dm), A17 RT was employed in the assay. […] Results are measured as IC50 dm in nanomoles/liter.

[1] = biological target: T2, recombinant HIV reverse transcriptase (HIV RTR) (Human immunodeficiency virus type 1 group M subtype B, UniProt P04585); experiment: Reverse transcriptase assay (wild type); format: biochemical, HIV-1
T2 construct: recombinant HIV reverse transcriptase (HIV RTR); made in house; host or cells: E. coli
Experimental: as §1, §2

HIV-1 (wild-type) = experiment: Cell spread assay (MT-4 T-lymphoid cells); format: cell-based; settings: Human immunodeficiency virus 1, MT4, 72 h, read-out: CIC*95
Experimental: Inhibition of the spread of HIV in cell culture was measured according to Nunberg, J. H. et al., J. Virol. 65, 4887 (1991 ). In this assay, MT-4 T-lymphoid cells were infected with HIV-1 (wild-type, unless otherwise indicated) by using a predetermined inoculum, and cultures were incubated for 24 h. At this time, ≤1% of the cells were positive by indirect immunofluorescence. Cells were then extensively washed and distributed into 96-well culture dishes. Serial twofold dilutions of inhibitor were added to the wells, and cultures were continued for 3 additional days. At 4 days postinfection, 100% of the cells in control cultures were infected. HIV-1 p24 accumulation was directly correlated with virus spread. The cell culture inhibitory concentration was defined as the inhibitor concentration in nanomoles/liter which reduced the spread of infection by at least 95%, or CIC95.

[2] = Table I, wild-type RT, read-out: IC*50 wt
[3] = Table II, wild-type RT, read-out: IC*50 wt
[4] = Table I, concentration reducing spread of infection by at least 95%, MT-4 cells

Row | SMILES | IC50 (A17 RT) | IC50 [1, 2] | further results
1 | CN(C)CC#CC1(C2CC2)OC(=O)Nc2ccc(Cl)cc21 (stereo not drawn) [Compound 31] | 4.25 µM | 0.41 µM | –
2 | CCC1(c2ccccc2)OC(=O)Nc2ccc(Cl)cc21 (stereo not drawn) [Compound 33] | – | 0.3 µM | –
3 | C#CC1(CCC)OC(=O)Nc2ccc(Cl)cc21 (stereo not drawn) [Compound 29] | > 100 µM | 1.9 µM | –
4 | O=C1Nc2ccc(Cl)cc2[C@@](C#Cc2ccccc2)(C(F)(F)F)O1 [4(-), (-) 6-Chloro-4-phenylethynyl-4-trifluoromethyl-1,4-dihydro-2H-3,1-benzoxazin-2-one] | 0.069 µM | – | IC95 (HIV-1 (wild-type)): 0.012 µM; IC50 [1]: 0.0086 µM
5 | S=C1Nc2ccc(Cl)cc2C(C2CC2)(C2CC2)O1 [Compound 38] | > 300 µM | – | IC50 [1, 3]: 0.136 µM
6 | COCC#CC1(C2CC2)OC(=O)Nc2ccc(Cl)cc21 (stereo not drawn) [Compound 30] | 3 µM | 0.41 µM | –
7 | O=C1Nc2ccc(Cl)cc2C(CCCCl)(C(F)(F)F)O1 (stereo not drawn) [Compound 14] | 65 µM | 0.13 µM | –
8 | CCC1(CC)OC(=S)Nc2ccc(Cl)cc21 [Compound 45] | > 300 µM | – | IC50 [1, 3]: 0.56 µM
9 | O=C1Nc2ccc(Cl)cc2C(C#CCN2CCCC2)(C(F)(F)F)O1 (racemic) [Compound 7, (+/-) 6-Chloro-4-(1,1,1-trifluoromethyl)-4-[(3-(1-pyrrolidinyl))-1-propynyl] -1,4-dihydro-2H-3,1-benzoxazin-2-one] | 3.46 µM | 0.091 µM | –
10 | O=C1Nc2ccc(Cl)cc2C(C#Cc2ccccc2)(C(F)(F)Cl)O1 (racemic) [Compound 5, (+/-) 4-(1-Chloro-1,1-difluoromethyl)-4-(2-phenylethynyl)-6-chloro-1,4-dihydro-2H-3,1-benzoxazin-2-one] | 0.35 µM | 0.012 µM | –
11 | CCC1(C(F)(F)F)OC(=O)Nc2ccc(Cl)cc21 (stereo not drawn) [Compound 17] | > 100 µM | 2.3 µM | –
12 | O=C1Nc2ccc(Cl)cc2C(Sc2ccccc2)(C(F)(F)F)O1 (stereo not drawn) [Compound 21] | 125 µM | 0.86 µM | –
13 | O=C1Nc2ccc(Cl)cc2[C@](C#Cc2ccccc2)(C(F)(F)F)O1 [3(+), (+) 6-Chloro-4-phenylethynyl-4-trifluoromethyl 1,4-dihydro-2H-3,1-benzoxazin-2-one] | 37 µM | – | IC95 (HIV-1 (wild-type); [4]): > 0.2 µM; IC50 [1]: 2.9 µM
14 | CCCCC1(c2ccccc2)OC(=S)Nc2ccc(Cl)cc21 (stereo not drawn) [Compound 42] | – | – | IC50 [1, 3]: 1.45 µM
15 | COC(=O)/C=C(/OC)C1(C(F)(F)F)OC(=O)Nc2ccc(Cl)cc21 (stereo not drawn) [Compound 13] | 100 µM | 0.39 µM | –
16 | CCCC1(C2CCCC2)OC(=S)Nc2ccc(Cl)cc21 (stereo not drawn) [Compound 41] | > 300 µM | – | IC50 [1, 3]: 1.4 µM
17 | CCCC1(c2ccccc2)OC(=O)Nc2ccc(Cl)cc21 (stereo not drawn) [Compound 32] | – | 5.4 µM | –
18 | O=C1Nc2ccc(Cl)cc2C(C#Cc2ccccc2)(C(F)(F)F)O1 (racemic) [12(+/-), (±) 6-Chloro-4-phenylethynyl-4-trifluoromethyl-1,4-dihydro-2H-3,1-benzoxazin-2-one] | 0.28 µM | 0.012 µM | IC95 (HIV-1 (wild-type); [4]): 0.025 µM
19 | CCCC1(c2ccccc2)OC(=S)Nc2ccc(Cl)cc21 (stereo not drawn) [Compound 43] | – | – | IC50 [1, 3]: 0.61 µM
20 | CN(C)CC#CC1(C(F)(F)F)OC(=O)Nc2ccc(Cl)cc21 (stereo not drawn) [Compound 24] | 1.95 µM | 0.043 µM | IC95 (HIV-1 (wild-type); [4]): 0.1 µM
21 | O=C1Nc2ccc(Cl)cc2C(C#Cc2ccccc2[N+](=O)[O-])(C(F)(F)F)O1 (stereo not drawn) [Compound 6] | 19 µM | 1.7 µM | –
22 | COc1ccccc1C#CC1(C(F)(F)F)OC(=O)Nc2ccc(Cl)cc21 (stereo not drawn) [Compound 11] | 0.27 µM | 0.016 µM | IC95 (HIV-1 (wild-type); [4]): 0.006 µM

Row | SMILES | IC50 (A17 RT) | IC50 [1, 2] | further results
23 | COCC#CC1(C(F)(F)F)OC(=O)Nc2ccc(Cl)cc21 (stereo not drawn) [Compound 18] | 2.65 µM | 0.015 µM | IC95 (HIV-1 (wild-type); [4]): 0.05 µM
24 | C#CC1(c2ccccc2)OC(=O)Nc2ccc(Cl)cc21 (stereo not drawn) [Compound 35] | > 300 µM | 0.65 µM | –
25 | CCCC1(C2CC2)OC(=O)Nc2ccc(Cl)cc21 (stereo not drawn) [Compound 28] | 114 µM | 0.307 µM | IC95 (HIV-1 (wild-type); [4]): 1.5 µM
26 | CCCC1(C2CC2)OC(=S)Nc2ccc(Cl)cc21 (stereo not drawn) [Compound 40] | 29 µM | – | IC50 [1, 3]: 0.048 µM
27 | C=CCCC1(C(F)(F)F)OC(=O)Nc2ccc(Cl)cc21 (racemic) [Compound 15, (+/-) 4-(1,1,1,-trifluoromethyl)-4-(1-buten-4-yl)-6-chloro-1,4-dihydro-2H-3,1-benzoxazin-2-one] | > 100 µM | 0.029 µM | –
28 | S=C1Nc2ccc(Cl)cc2C(c2ccccc2)(C2CC2)O1 (stereo not drawn) [Compound 46] | > 300 µM | – | IC50 [1, 3]: 0.041 µM
29 | C#CC1(C(F)(F)F)OC(=O)Nc2ccc(Cl)cc21 (racemic) [Compound 26, (+/-) 6-Chloro-4-ethynyl-4-(1,1,1-trifluoromethyl)-1,4-dihydro-2H-3,1-benzoxazin-2-one] | > 100 µM | 0.00024 µM | –
30 | N#Cc1ccccc1C#CC1(C(F)(F)F)OC(=O)Nc2ccc(Cl)cc21 (racemic) [Compound 2, (+/-) 6-Chloro-4-(2-cyanophenyl)ethynyl-4-(1,1,1-trifluoromethyl)-1,4-dihydro-2H-3,1-benzoxazin-2-one] | 0.48 µM | 0.025 µM | IC95 (HIV-1 (wild-type); [4]): 0.006 µM
31 | CCCCC1(C(F)(F)F)OC(=O)Nc2ccc(Cl)cc21 (stereo not drawn) [Compound 19] | 25 µM | 0.024 µM | –
32 | O=C1Nc2ccc(Cl)cc2C(c2ccccc2)(C(F)(F)F)O1 (stereo not drawn) [Compound 20] | 100 µM | 0.145 µM | –
33 | COc1ccc(C#CC2(C(F)(F)F)OC(=O)Nc3ccc(Cl)cc32)cc1 (stereo not drawn) | 4.1 µM | 0.058 µM | –
34 | O=C1Nc2ccc(Cl)cc2C(CCc2ccccc2)(C(F)(F)F)O1 (stereo not drawn) [Compound 22] | 3.65 µM | 0.055 µM | –
35 | COc1cccc(C#CC2(C(F)(F)F)OC(=O)Nc3ccc(Cl)cc32)c1 (stereo not drawn) [Compound 10] | 0.39 µM | 0.018 µM | –
36 | CCC1(C2CC2)OC(=S)Nc2ccc(Cl)cc21 (stereo not drawn) [Compound 39] | > 300 µM | – | IC50 [1, 3]: 0.51 µM
37 | C=CCC1(C(F)(F)F)OC(=O)Nc2ccc(Cl)cc21 (stereo not drawn) [Compound 25] | > 100 µM | 0.22 µM | –
38 | Cc1ccc(C#CC2(C(F)(F)F)OC(=O)Nc3ccc(Cl)cc32)cc1 (stereo not drawn) [Compound 8] | 8.47 µM | 0.163 µM | –
39 | CCCC1(C(C)(C)C)OC(=O)Nc2ccc(Cl)cc21 (stereo not drawn) [Compound 37] | > 100 µM | 5.3 µM | –
40 | CCC1(c2ccccc2)OC(=S)Nc2ccc(Cl)cc21 (stereo not drawn) [Compound 44] | > 300 µM | – | IC95 (HIV-1 (wild-type); Table II, concentration reducing spread of infection by at least 95%, MT-4 cells): 0.1 µM; IC50 [1, 3]: 0.015 µM
41 | O=C1Nc2ccc(Cl)cc2C(C#CCO)(C(F)(F)F)O1 (stereo not drawn) [Compound 27] | > 100 µM | 0.55 µM | –
42 | CCC1(CC)OC(=O)Nc2ccc(Cl)cc21 [Compound 34] | > 300 µM | 16.5 µM | –
43 | CCCC1(CC)OC(=O)Nc2ccc(Cl)cc21 (stereo not drawn) [Compound 36] | > 300 µM | 0.052 µM | –
44 | C=CC1(C(F)(F)F)OC(=O)Nc2ccc(Cl)cc21 (stereo not drawn) [Compound 23] | > 30 µM | 1.3 µM | –
